# Source: US11021481B2, “Substituted isoindolin-1-ones and 2,3-dihydro-1h-pyrrolo[3,4-c]pyridin-1-ones as HPK1 antagonists” (Nimbus Saturn, Inc., priority 2019, dated 2021)
# Structures can show the parent of a compound that is named as a salt.
# Target: HPK1 (Homo sapiens (Human), UniProt Q92918)
# Experiment: HPK1 biochemical enzyme assay (microfluidic mobility shift assay)
# Details: 1.5 nM HPK1, ATP 1 mM final, 30 min preincubation, 60 min at RT, Caliper EZ Reader; read-out: HPK1 1000UMATP caliper IC50
# Summary of the method: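 Mobility shift readout of HPK1 activity after a 60 min RT reaction with 1 mM ATP, 1 μM substrate and 5 mM MgCl2. Enzyme/substrate mix was first exposed to compounds for 30 min, using ten-point curves topping at 3 μM final.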
# HPK1, sequence (Q92918 whole entry): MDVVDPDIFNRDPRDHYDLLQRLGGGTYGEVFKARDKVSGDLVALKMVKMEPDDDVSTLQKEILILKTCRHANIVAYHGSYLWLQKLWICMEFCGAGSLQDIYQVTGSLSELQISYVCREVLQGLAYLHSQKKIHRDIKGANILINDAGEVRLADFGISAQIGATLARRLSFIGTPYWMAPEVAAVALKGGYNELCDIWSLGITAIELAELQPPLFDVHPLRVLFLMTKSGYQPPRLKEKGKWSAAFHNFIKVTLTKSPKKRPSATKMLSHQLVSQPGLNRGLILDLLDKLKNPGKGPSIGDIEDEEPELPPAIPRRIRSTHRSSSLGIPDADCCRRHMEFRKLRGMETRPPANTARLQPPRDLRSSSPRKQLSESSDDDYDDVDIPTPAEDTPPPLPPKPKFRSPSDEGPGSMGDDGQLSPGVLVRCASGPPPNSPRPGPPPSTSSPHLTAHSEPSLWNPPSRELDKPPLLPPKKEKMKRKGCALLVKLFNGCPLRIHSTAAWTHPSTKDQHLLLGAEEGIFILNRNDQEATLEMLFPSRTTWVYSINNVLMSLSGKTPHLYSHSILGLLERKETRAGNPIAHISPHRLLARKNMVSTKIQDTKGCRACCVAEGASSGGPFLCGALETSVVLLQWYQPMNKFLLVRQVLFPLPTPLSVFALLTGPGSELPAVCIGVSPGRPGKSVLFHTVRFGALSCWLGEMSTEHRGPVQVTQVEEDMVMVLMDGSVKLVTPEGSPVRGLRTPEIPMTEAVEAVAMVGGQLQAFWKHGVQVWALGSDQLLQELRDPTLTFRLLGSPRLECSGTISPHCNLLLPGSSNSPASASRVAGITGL
row,Structure (SMILES),IC50
1,"CN1CCN(c2ccc(Nc3cnc(-c4c[nH]c5cc(OCc6ccccc6)ccc45)c4c3C(=O)NC4)nc2)CC1 [I-260, 4-(6-(benzyloxy)-1H-indol-3-yl)-7-((5-(4-methylpiperazin-1-yl)pyridin-2-yl)amino)-2.3-dihydro-1H-pyrrolo[3,4-c]pyridin-1-one]",> 1000 nM
2,"Cc1cc2c(-c3ncc(Nc4ccc(N5CCC[C@@H](C(C)(C)O)C5)cn4)c4c3CNC4=O)ccnc2n1C [I-237, 4-[1,2-dimethylpyrrolo [2,3-b]pyridin-4-yl)-7-[[5-[(3R)-3-(1-hydroxy-1-methyl-ethyl)-1-piperidyl]-2-pyridyl]amino]-2,3-dihydropyrrolo [3,4-c]pyridin-1-one]",100 to 1000 nM
3,"COc1ccc2[nH]cc(-c3ncc(Nc4ccc(N5CCN(C)CC5)cn4)c4c3CNC4=O)c2c1 [I-9, 4-(5-methoxy-1H-indol-3-yl)-7-[[5-(4-methylpiperazin-1-yl)-2-pyridyl]amino]-2,3-dihydropyrrolo [3,4-c]pyridin-1-one]",100 to 1000 nM
4,Cn1ncc(Nc2ccc(-c3cnc4cc(F)ccn34)c3c2C(=O)NC3)c1C1CCOCC1 [I-396],> 1000 nM
5,"Cn1ccc2c(-c3ncc(Nc4cccc(N5C[C@@H](CN6CCC6)CCC5=O)n4)c4c3CNC4=O)ccnc21 [I-688, (R)-7-((6-(5-(azetidin-1-ylmethyl)-2-oxopiperidin-1-yl)pyridin-2-yl)amino)-4-(1-methyl-1H-pyrrolo[2,3-b]pyridin-4-yl)-2,3-dihydro-1H-pyrrolo[3,4-c]pyridin-1-one]",> 1000 nM
6,"Cc1ccc2c(-c3ncc(Nc4ccc(N5CCN(C)CC5)cn4)c4c3CNC4=O)c[nH]c2c1 [I-8, 4-(6-methyl-1H-indol-3-yl)-7-[[5-(4-methylpiperazin-1-yl)-2-pyridyl]amino]-2,3-dihydropyrrolo [3,4-c]pyridin-1-one]",100 to 1000 nM
7,"Cn1ccc2c(-c3ccc(Nc4ccc(N5CC[C@H](O)C5)cn4)c4c3CNC4=O)ccnc21 [I-285, (S)-7-((5-(3-hydroxy-pyrrolidin-1-yl)pyridin-2-yl)amino)-4-(1-methyl-1H-pyrrolo[2,3-b]pyridin-4-yl)isoindolin-1-one]",< 100 nM
8,"CN(C)Cc1nc(Nc2ccc(-c3cnc4cc(F)ccn34)c3c2C(=O)NC3)ccc1N1CCC[C@H](C(C)(C)O)C1 [I-746, (S)-7-((6-((dimethylamino)-methyl)-5-(3-(2-hydroxypropan-2-yl)piperidin-1-yl)pyridin-2-yl)amino)-4-(7-fluoroimidazo [1,2-a]pyridin-3-yl)isoindolin-1-one]",< 100 nM
9,"Cn1ccc2c(-c3ncc(Nc4cccc(N5CCC[C@@H](N)C5)n4)c4c3CNC4=O)ccnc21 [I-231, 7-[[6-[(3R)-3-amino-1-piperidyl]-2-pyridyl]-amino]-4-(1-methylpyrrolo [2,3-b]pyridin-4-yl)-2,3-dihydropyrrolo [3,4-c]pyridin-1-one]",< 100 nM
10,"CC(C)NCc1nc(Nc2ccc(-c3cnc4cc(F)ccn34)c3c2C(=O)NC3)ccc1C1CCOCC1 [I-847, 4-(7-fluoroimidazo [1,2-a]pyridin-3-yl)-7-[[6-[(isopropylamino)-methyl]-5-tetrahydropyran-4-yl-2-pyridyl]amino] isoindolin-1-one Formic acid salt]",< 100 nM
11,"O=C1NCc2c(-c3cnc4cnccn34)ccc(Nc3ccc(N4CCC[C@@H](O)CC4)cn3)c21 [I-329, (R)-7-((5-(4-hydroxyaze-pan-1-yl)pyridin-2-yl)amino)-4-(imidazol[1,2-a]pyrazin-3-yl)isoindolin-1-one]",< 100 nM
12,"Cn1ccc2c(-c3ncc(Nc4cccc(N5C[C@@H](N6CCC6)CC5=O)n4)c4c3CNC4=O)ccnc21 [I-725, (S)-7-((6-(4-(azetidin-1-yl)-2-oxopyrrolidin-1-yl)pyridin-2-yl)amino)-4-(1-methyl-1H-pyrrolo[2,3-b]pyridin-4-yl)-2,3-dihydro-1H-pyrrolo[3,4-c]pyridin-1-one]",< 100 nM
13,"Cc1ccn2c(-c3ccc(Nc4ccc([C@@H]5CCOC5)c(CN(C)C)n4)c4c3CNC4=O)cnc2c1F [I-704, (S)-7-((6-((dimethylamino)-methyl)-5-(tetrahydrofuran-3-yl)pyridin-2-yl)amino)-4-(8-fluoro-7-methylimidazo [1,2-a]pyridin-3-yl)isoindolin-1-one]",< 100 nM

# Second part, the compound after the results:
row,IC50,Structure (SMILES)
1,< 100 nM,"CN(C)CCc1nc(Nc2ccc(-c3cnc4cc(F)ccn34)c3c2C(=O)NC3)ccc1C1CCOCC1 [I-838, 7-((6-(2-(dimethylami-no)ethyl)-5-(tetrahydro-2H-pyran-4-yl)pyridin-2-yl)amino)-4-(7-fluoroimidazo [1,2-a]pyridin-3-yl)isoindolin-1-one]"
2,< 100 nM,"CN(C)Cc1nc(Nc2ccc(-c3cnc4cc(F)ccn34)c3c2C(=O)NC3)ccc1N1CC[C@H](F)[C@@H](O)C1 [I-701, 7-((6-((dimethylamino)-methyl)-5-((3S.4S]-4-fluoro-3-hydroxypiperidin-1-yl)pyridin-2-yl)amino)-4-(7-fluoroimidazo [1,2-a]pyridin-3-yl)isoindolin-1-one]"
3,< 100 nM,"O=C1NCc2c(-c3cnc4cc(C(F)F)ccn34)ccc(Nc3ccc([C@@]4(O)CCOC4)cn3)c21 [I-610, (S)-4-(7-(difluoromethyl)-imidazo[1,2-a]pyridin-3-yl)-7-((5-(3-hydroxytetra-hydrofuran-3-yl)pyridin-2-yl)amino)isoin-dolin-1-one]"
4,< 100 nM,"CN(C)CC1(O)CCN(c2ccc(Nc3ccc(-c4cnc5cc(F)ccn45)c4c3C(=O)NC4)nc2)CC1 [I-366, 7-((5-(4-((dimethylamino)-methyl)-4-hydroxypiperidin-1-yl)pyridin-2-yl)amino)-4-(7-fluoroimidazo [1,2-a]pyridin-3-yl)isoindolin-1-one]"
5,< 100 nM,"O=C1NCc2c(-c3cnc4cc(F)ccn34)ccc(Nc3ccc([C@H]4CCOC4)c(CN4CCC[C@H]4CO)n3)c21 [I-827, 4-(7-fluoroimidazo [1,2-a]pyridin-3-yl)-7-((6-(((S)-2-(hydroxymeth-yl)pyrrolidin-1-yl]methyl)-5-((R)-THF-3-yl)pyridin-2-yl)amino)isoin-dolin-1-one]"
6,< 100 nM,"C[C@H](O)[C@H]1CN(c2ccc(Nc3ccc(-c4cnc5cc(F)ccn45)c4c3C(=O)NC4)nc2)CCO1 [I-634, 4-(7-fluoroimidazo[1,2-a]pyridin-3-yl)-7-((5-((R)-2-((S)-1-hydroxyethyl)morpholino)pyridin-2-yl)amino)isoindolin-1-one]"
7,< 100 nM,"CN(C)Cc1nc(Nc2cnc(-c3ccnc4[nH]ccc34)c3c2C(=O)NC3)ccc1[C@H]1CCOC1 [I-767, (R)-7-((6-((dimethylamino)-methyl)-5-(tetrahydrofuran-3-yl)pyridin-2-yl)amino)-4-(1H-pyrrolo[2,3-b]pyridin-4-yl)-2,3-dihydro-1H-pyrrolo[3,4-c]pyridin-1-one]"
8,< 100 nM,"Cc1cnn2c(-c3ccc(Nc4ccc([C@@H]5CCOC5)c(CN(C)C)n4)c4c3CNC4=O)cnc2c1 [I-538, (S)-7-((6-((dimethylamino)-methyl)-5-(tetrahydrofuran-3-yl)pyridin-2-yl)amino)-4-(7-methylimidazo [1,2-b]pyridazin-3-yl)isoindolin-1-one]"
9,< 100 nM,"CN(C)Cc1nc(Nc2cnc(-c3ccnc4c3ccn4C)c3c2C(=O)NC3)ccc1N1CCC(O)CC1 [I-776, 7-((6-((dimethylamino)-methyl)-5-(4-hydroxypiperidin-1-yl)pyridin-2-yl)amino)-4-(1-methyl-1H-pyrrolo[2,3-b]pyridin-4-yl)-2,3-dihydro-1H-pyrrolo[3,4-c]pyridin-1-one]"
